Measured values taken from patent US12290535B2, “Langerin+ cell targeting” (Max-Planck-Gesellschaft zur Förderung der Wissenschaften …, priority 2018, dated 2025).

Assays:
[1] = test system: hLangerin+ Raji cells; test: cell-based binding and internalization assay of functionalized GFP; parameters: species or system human; settings: 4° C., in words
Experimental: In FIG. 21 (A) the binding and uptake of functionalized GFP at 4° C. and 37° C. was dose-dependently measured by flow cytometry with Raji and Langerin^+ Raji cells. In FIG. 21 (B) GFP and liposomes were incubated for various time points with Langerin^+ Raji cells. Here, FITC-BSA encapsulated liposomes were utilized to compare the FITC fluorescence with the GFP fluorescence.
Functionalized GFP was then tested in a cell-based binding and internalization assay. Both GlcNTosyl functionalized GFP and unconjugated GFP were incubated with WT or hLangerin^+ Raji cells at 4° C. and at 37° C. for 1 h or 2 h, respectively (see FIG. 21). Targeted GFP specifically bound to Langerin expressing cells and saturated at concentrations above 1 μg/ml (see FIG. 21 (A)). […] GFP fluorescence was slightly elevated compared to the binding assay and also saturated above 1 μg/ml.

[2] = molecular target: T1, Langerin ECD (Homo sapiens, UniProt Q9UJ71, V278A); test: 19F R2-filtered NMR reporter displacement assay (Ki determination); format: binding; settings: Langerin ECD 50 μM, pH 7.8, 25° C.
T1 construct: residues 148 to 328; TEV site (C); StreptagII (C); made in house; host or cells: E. coli BL21* (DE3)
Experimental: Langerin extracellular domain. Expression and purification were conducted as previously published (Wamhoff, E. C. et al. (19)F Nmr-Guided Design of Glycomimetic Langerin Ligands. ACS Chem Biol, 11, 2407-13 (2016)). Briefly, the trimeric Langerin extracellular domain (ECD) was expressed insolubly in E. coli BL21* (DE3) (Invitrogen). Following enzymatic cell lysis, inclusion bodies were harvested and subsequently solubilized. The sample was centrifuged and the Langerin ECD was refolded overnight via rapid dilution. Next, the sample was dialyzed overnight, centrifuged and purified via mannan-agarose affinity chromatography (Sigma Aldrich). For ^19F R2-filtered NMR and lipid-enzyme-linked lectin assay (Lipid-ELLA) experiments, the buffer was exchanged to 25 mM Tris with 150 mM NaCl and 5 mM CaCl2 at pH 7.8 using 7 kDa size-exclusion desalting columns (Thermo Scientific). For STD NMR experiments, Langerin ECD samples were dialyzed five times for at least 8 h against H2O. Subsequently, the H2O was removed via lyophilization and the residue was stored at −80° C. Prior to STD NMR experiments, the Langerin ECD was dissolved in 25 mM Tris-d11 (Eurisotope) with 100% D2O, 150 mM NaCl and 5 mM CaCl2 at pH 7. The concentration of Langerin ECD was determined via UV spectroscopy (A280, 0.1%=2.45). Purity and monodispersity of Langerin ECD samples were analyzed via SDS PAGE and DLS.
General remarks. ^19F R2-filtered NMR experiments were conducted on a PremiumCompact 600 MHz spectrometer (Agilent). Spectra were processed in MestReNova and data analysis was performed with OriginPro (Mestrelab Research. Mestrenova. 11.0.2. (2016); OriginLab. Originpro. 9.1. (2015)). Experiments with the Langerin ECD were performed at a receptor concentration of 50 μM in 25 mM Tris with 10% D2O, 150 mM NaCl and 5 mM CaCl2 at pH 7.8 and 25° C. Experiments with the DC-SIGN CRD were performed at a receptor concentration of 50 μM in 25 mM HEPES with 10% D2O, 150 mM NaCl and 5 mM CaCl2 at pH 7.0 and 25° C. TFA served as an internal reference at a concentration of 50 μM. Apparent relaxation rates R2,obs for the reporter ligand were determined using the CPMG pulse sequence as previously published (Wamhoff, E. C. et al. (19)F Nmr-Guided Design of Glycomimetic Langerin Ligands. ACS Chem Biol, 11, 2407-13 (2016): Carr, H. Y. & Purcell, E. M. Effects of Diffusion on Free Precession in Nuclear Magnetic Resonance Experiments. Phys Rev, 94, 630-638 (1954); Meiboom, S. & Gill, D. Modified Spin-Echo Method for Measuring Nuclear Relaxation Times. Rev Sci Instrum 29, 688-691 (1958)).
Ki determination. Ki values were determined as previously published for Langerin (Wamhoff, E. C. et al. (19)F NMR-Guided Design of Glycomimetic Langerin Ligands. ACS Chem Biol 11, 2407-13 (2016)). Briefly, titration experiments were conducted at a concentration of 0.1 mM of reporter ligand 24 at five competitor concentrations [I]T. Samples were prepared via serial dilution. For the acids GlcNS, GlcNAc-6-OS and GlcNS-6-OS the pH values were monitored and adjusted to 7.8 if necessary.

[3] = molecular target: T2, DC-SIGN (Homo sapiens, UniProt Q9NNX6); settings: literature; cited from earlier work
T2 sequence (Q9NNX6 1-404): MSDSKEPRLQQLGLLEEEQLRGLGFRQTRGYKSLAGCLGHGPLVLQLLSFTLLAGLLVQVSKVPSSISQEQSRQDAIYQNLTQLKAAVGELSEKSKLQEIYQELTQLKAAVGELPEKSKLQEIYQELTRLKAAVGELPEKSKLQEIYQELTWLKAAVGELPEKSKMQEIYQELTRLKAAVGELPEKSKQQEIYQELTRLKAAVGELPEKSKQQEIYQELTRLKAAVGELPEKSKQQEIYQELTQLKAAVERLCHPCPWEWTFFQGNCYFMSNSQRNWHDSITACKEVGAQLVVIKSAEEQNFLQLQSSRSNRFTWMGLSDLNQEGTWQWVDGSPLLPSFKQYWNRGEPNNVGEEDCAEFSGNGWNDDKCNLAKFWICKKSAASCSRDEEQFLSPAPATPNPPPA

[4] = test system: Langerin+ cells; test: in vitro cytotoxicity, Annexin-V / 7-AAD staining; format: cell-based; settings: 50% DMSO for 3 min, positive control
Experimental: Liposomes consist mainly of phospholipids and cholesterol. […] As a positive control, cells were treated for 3 min with 50% DMSO. Untreated cells were applied as negative controls. Cells were washed and resuspended in 25 μl buffer (10 mM HEPES, 140 mM NaCl and 2.5 mM CaCl2), pH7.4) containing 1:100 diluted Annexin-V-FITC (Adipogen). Cells were incubated for 10 min in the dark at room temperature. After washing, cells were resuspended in 100 μl buffer containing 1 μl 7-AAD solution (Biolegend) and incubated for 5-10 min in the dark at room temperature. Cells were directly measured without any further washing steps by flow cytometry. […] Annexin-V was detected with a 530/30 filter, 7-AAD with a 695/40 filter and Alexa647 with a 670/14 filter (Attune Nxt, life technologies). […] Langerin targeted liposomes were incubated with cells for extended time periods up to 72 h, and cell toxicity was subsequently analyzed (see FIG. 17).
Early apoptotic effects were detected with Annexin-V staining that binds translocated phosphatidylserine, whereas late apoptotic cells were stained with 7-AAD a cell impermeable fluorescent intercalator that associates to DNA and undergoes a spectral shift. […] After doublet discrimination, single cells were analyzed for Annexin-V-FITC and 7-AAD staining in a bivariate histogram by dividing the plot in four quadrants. […]

[5] = molecular target: T3, DC-SIGN CRD (Homo sapiens, UniProt Q9NNX6); test: 19F R2-filtered NMR reporter displacement assay transferred to DC-SIGN; format: binding; settings: 19F R2-filtered NMR, DC-SIGN CRD 50 μM, pH 7.0, 25° C.
T3 construct: residues 205 to 404; TEV site (C); StreptagII (C); made in house; host or cells: E. coli BL21* (DE3)
T3 sequence (Q9NNX6 250-404): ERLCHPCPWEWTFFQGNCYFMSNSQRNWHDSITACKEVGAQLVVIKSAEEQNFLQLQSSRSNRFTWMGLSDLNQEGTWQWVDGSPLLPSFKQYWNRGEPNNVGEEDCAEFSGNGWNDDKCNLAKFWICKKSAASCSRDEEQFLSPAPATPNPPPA
Experimental: Langerin and DC-SIGN carbohydrate recognition domain. Expression and purification were conducted as previously published. Briefly, the monomeric ^15N-labeled Langerin and DC-SIGN carbohydrate recognition domains (CRDs) were expressed insolubly in E. coli BL21* (DE3) (Invitrogen). Following enzymatic cell lysis, inclusion bodies were harvested and subsequently solubilized. The sample was centrifuged and the Langerin and DC-SIGN CRDs were refolded overnight via rapid dilution. Next, the sample was dialyzed overnight, centrifuged and purified via StrepTactin affinity chromatography (Iba). After an additional dialysis step overnight, the sample was centrifuged and the buffer was exchanged to 25 mM HEPES with 150 mM NaCl at pH 7.0 using 7 kDa size-exclusion desalting columns (Thermo Scientific) for ^19F R2-filtered and ^15N HSQC NMR experiments. The concentration of Langerin and DC-SIGN CRDs was determined via UV spectroscopy (A280, 0.1%=3.19 and A280, 0.1%=2.98). Purity and monodispersity of Langerin and DC-SIGN CRD samples were analyzed via SDS PAGE and DLS.
General remarks. ^19F R2-filtered NMR experiments were conducted on a PremiumCompact 600 MHz spectrometer (Agilent). […] Apparent relaxation rates R2,obs for the reporter ligand were determined using the CPMG pulse sequence as previously published (Wamhoff, E. C. et al. (19)F Nmr-Guided Design of Glycomimetic Langerin Ligands. ACS Chem Biol, 11, 2407-13 (2016): Carr, H. Y. & Purcell, E. M. Effects of Diffusion on Free Precession in Nuclear Magnetic Resonance Experiments. Phys Rev, 94, 630-638 (1954); Meiboom, S. & Gill, D. Modified Spin-Echo Method for Measuring Nuclear Relaxation Times. Rev Sci Instrum 29, 688-691 (1958)).
Assay development for DC-SIGN. […] Briefly, the KD value and the relaxation rate in bound state R2,b were determined at five concentrations [L]T of reporter ligand 24 in three independent titration experiments. […]
Ki determination. Ki values were determined as previously published for Langerin (Wamhoff, E. C. et al. (19)F NMR-Guided Design of Glycomimetic Langerin Ligands. ACS Chem Biol 11, 2407-13 (2016)). […]

T1 sequence (Q9UJ71 148-328 V278A): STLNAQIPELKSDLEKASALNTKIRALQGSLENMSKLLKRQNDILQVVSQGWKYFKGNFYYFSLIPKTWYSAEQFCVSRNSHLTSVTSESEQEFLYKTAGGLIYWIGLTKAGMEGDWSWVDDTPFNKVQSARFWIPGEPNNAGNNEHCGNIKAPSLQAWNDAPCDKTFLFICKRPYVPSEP

With “Unconjugated GFP: Green Fluorescence Protein without ligand, SEQ ID NO: 82” the fluorescence signal [1] was “did not show increased fluorescence signals”.

In the case of `CC(=O)N[C@H]1C(O)O[C@H](COS(=O)(=O)O)[C@@H](O)[C@@H]1O` (stereo partly shown) [GlcNAc-6-OS, N-acetyl glucosamine-6-sulfate], the Ki [2] is reported as 600 ± 100 µM.

In the case of `CC(=O)N[C@H]1C(O)O[C@H](CO)[C@@H](O[C@@H]2O[C@H](CO)[C@H](O)[C@H](O)[C@H]2O)[C@@H]1O[C@@H]1O[C@@H](C)[C@@H](O)[C@@H](O)[C@@H]1O` (stereo partly shown) [Le^X], the Kd [3] is given as roughly 1000 µM.

With `C[S+](C)[O-]` [DMSO] the dead cells [4] was 98%.

`OC[C@H]1OC(O)[C@H](O)[C@@H](O)[C@@H]1O` (stereo partly shown) [Glc] showed a Ki [2] of 21000 ± 4000 µM.

`O=S(=O)(O)N[C@H]1C(O)O[C@H](CO)[C@@H](O)[C@@H]1O` (stereo partly shown) [GlcNS, glucosamine-2-sulfate] gave a Ki [2] of 1400 ± 200 µM.

In the case of `O=C[C@@H](O)[C@@H](O)[C@H](O)[C@H](O)CO` [Man, mannose], the Ki [5] is reported as 3000 ± 300 µM and the Ki [2] is reported as 4500 ± 500 µM.

Compound `O=S(=O)(O)N[C@H]1C(O)O[C@H](COS(=O)(=O)O)[C@@H](O)[C@@H]1O` (stereo partly shown) [GlcNS-6-OS, glucosamine-2-sulfate-6-sulfate] has a Ki [2] of 280 ± 60 µM.

`CC(=O)N[C@H]1C(O)O[C@H](CO)[C@@H](O)[C@@H]1O` (stereo partly shown) [GlcNAc, N-acetyl glucosamine] gave a Ki [2] of 4100 ± 700 µM.
